Test results from US12404304B1, “Telomerase reverse transcriptase (TERT) expression enhancing compounds and methods for using the same” (Sierra Sciences, LLC, priority 2007, dated 2025).
Where two headings read alike, the source gives them in different places.

Tests used:
[1] = test system: human TERT expression (hTERT mRNA); assay: Quantitative real-time RT-PCR of hTERT mRNA expression (Ct, transcripts) in compound-treated cells; type: cell-based
Procedure, shortened: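 Read-out is cycle threshold, the cycle at which probe fluorescence released by Taq 5′-nuclease activity crosses a set level; Ct falls as hTERT mRNA rises. cDNA of treated and untreated cells was compared, with starting transcripts quantified against a known-cDNA standard curve.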

viable cells in culture [2] = test system: viable cells in culture
viable cells in culture [3] = assay: Cell viability assay (CellTiter-Glo Luminescent Cell Viability Assay, ATP quantitation, percent of vehicle control)

Fc1cc(Br)cc2c1NC(c1cccnc1)C1CC=CC21 (stereo not drawn) [compound 1457]
Average Number of hTERT Transcripts [1]: 12.20 | Average Cell Viability after 24 Hours (% DMSO) (viable cells in culture [2]): 57.76 % DMSO

O=C(NCCc1c[nH]cn1)c1cc(-c2cccs2)on1 [compound 1523]
Average Number of hTERT Transcripts [1]: 513.46 | Average Cell Viability after 24 Hours (% DMSO) (viable cells in culture [2]): 87.71 % DMSO

Fc1cc(F)c2c(c1)C1C=CCC1C(c1cccnc1)N2 (stereo not drawn) [compound 1463]
Average Number of hTERT Transcripts [1]: 174.29 | Average Cell Viability after 24 Hours (% DMSO) (viable cells in culture [2]): 62.06 % DMSO

Cn1c2c(c(=O)[nH]c1=O)C(c1ccccc1)C1=C(N2)c2ccccc2C1=O (stereo not drawn) [compound 1234]
Average Number of hTERT Transcripts ([1]; quantitative real-time RT-PCR): 62.81 | Average Cell Viability after 24 Hours (% DMSO) (viable cells in culture [3]): 53.62 % DMSO

CC1CCN(C(=O)CN(Cc2ccc(F)cc2)S(C)(=O)=O)CC1 [compound 1351]
Average Number of hTERT Transcripts ([1]; quantitative real-time RT-PCR): 5.17 | Average Cell Viability after 24 Hours (% DMSO) (viable cells in culture [3]): 98.19 % DMSO

CC1=C(C(=O)OC2CCCC2)C(c2ccc(Br)cc2)C2=C(CC(C)(C)CC2=O)N1 (stereo not drawn) [compound 1247]
Average Number of hTERT Transcripts ([1]; quantitative real-time RT-PCR): 74.16 | Average Cell Viability after 24 Hours (% DMSO) (viable cells in culture [3]): 95.77 % DMSO
